Results taken from patent US20100022531A1, “NOVEL COMPOUNDS AS P2X7 MODULATORS AND USES THEREOF” (RENOVIS, INC., priority 2005, published 2010).

The compounds below were run against T1, P2X7 receptor (Homo sapiens, UniProt Q99572) (assay: Alternate method for IL-1β release assay (differentiated THP-1 cells, BzATP-stimulated, ELISA)). Conditions: P2X7, read-out: IL-1β % inhib @ 0.3 μM.
T1 construct: host or cells: THP-1 cells differentiated with LPS and IFN-γ
T1 sequence (Q99572 1-595): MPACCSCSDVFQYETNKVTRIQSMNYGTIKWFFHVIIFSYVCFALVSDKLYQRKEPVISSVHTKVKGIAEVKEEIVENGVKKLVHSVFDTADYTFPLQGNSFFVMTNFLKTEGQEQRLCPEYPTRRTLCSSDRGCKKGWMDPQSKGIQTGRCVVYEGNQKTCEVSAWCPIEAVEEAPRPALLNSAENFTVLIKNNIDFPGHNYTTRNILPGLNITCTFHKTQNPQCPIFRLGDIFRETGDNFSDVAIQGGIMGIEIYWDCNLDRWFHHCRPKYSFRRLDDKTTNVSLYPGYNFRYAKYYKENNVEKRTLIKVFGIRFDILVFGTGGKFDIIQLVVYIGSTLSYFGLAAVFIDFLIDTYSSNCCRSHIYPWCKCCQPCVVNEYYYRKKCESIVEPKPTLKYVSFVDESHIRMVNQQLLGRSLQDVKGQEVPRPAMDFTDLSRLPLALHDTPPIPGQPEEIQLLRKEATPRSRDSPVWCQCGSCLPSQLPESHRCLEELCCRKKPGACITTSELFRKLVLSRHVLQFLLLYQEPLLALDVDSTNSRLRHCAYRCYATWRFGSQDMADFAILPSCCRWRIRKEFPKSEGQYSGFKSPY
Assay type: cell-based
Protocol: Alternate Method for IL-1β Release Assay
THP-1 cells (ATCC Cat #285-IF-100) are plated in 96 well plates at a concentration of 200,000 cells per well and allowed to differentiate in RPMI-1640 media (ATCC Cat #30-2001) containing 10% FBS, 100 IU/mL penicillin, 100 ug/mL streptomycin, 100 ng/mL LPS and 100 ng/mL IFN-γ for 16 hours. Following differentiation, the cells are treated for an additional 2 hours in RPMI-1640 media containing 100 IU/mL penicillin, 100 ug/mL streptomycin and fresh LPS at 100 ng/mL. The cells are then pretreated for 30 minutes with the compound of interest at the appropriate concentration in RPMI media containing 100 IU/mL penicillin, 100 ug/mL streptomycin. Following the pretreatment 2′,3′-O-(4-benzoylbenzoyl)-adenosine 5′-triphosphate (Sigma Aldrich Cat# B6396) is added to a final concentration of 250 uM and the cells incubated for an additional 45 minutes. 30 uL of cell supernatant is then collected and IL-1β levels determined via ELISA (R&D systems Cat. # HSLB50) according to manufacturers recommendations using the Tecan Safire plate reader. Background adjusted IL-1β levels of drug treated and non-treated cells are used to calculate the percent inhibition.

SMILES | inhibition at 0.3 µM
O=S(=O)(c1ccccc1)N1CCc2c(ncnc2NCC23CC4CC(CC(C4)C2)C3)C1 [Compound 4, Adamantan-1-ylmethyl-(7-benzenesulfonyl-5,6,7,8-tetrahydro-pyrido[3,4-d]pyrimidin-4-yl)-amine] | 50 to 75%

Same assay, conditions: P2X7; 0.1 μM compound (plus symbols); read-out: IL-1β % inhib @ 0.1 μM

SMILES | inhibition at 0.1 µM
c1ccc(CN2CCc3c(ncnc3NCC34CC5CC(CC(C5)C3)C4)C2)cc1 [Compound 1, Adamantan-1-ylmethyl-(7-benzyl-5,6,7,8-tetrahydro-pyrido[3,4-d]pyrimidin-4-yl)-amine] | > 75%
CCS(=O)(=O)N1CCc2c(ncnc2NCC23CC4CC(CC(C4)C2)C3)C1 [Compound 9] | > 75%

The next lines start with the values.

inhibition at 0.1 µM | SMILES
> 75% | O=S(=O)(c1ccccc1F)N1CCc2c(ncnc2NCC23CC4CC(CC(C4)C2)C3)C1 [Compound 24]
50 to 75% | O=S(=O)(c1ccc(Oc2ccccc2)cc1)N1CCc2c(ncnc2NCC23CC4CC(CC(C4)C2)C3)C1 [Compound 47]
25 to 50% | O=S(=O)(c1ccccc1-c1ccccc1)N1CCc2c(ncnc2NCC23CC4CC(CC(C4)C2)C3)C1 [Compound 50]

Same assay, conditions: P2X7; 0.3 μM compound (asterisk symbols); read-out: IL-1β % inhib @ 0.3 μM

SMILES | inhibition at 0.3 µM
CC12CC3CC(C)(C1)CC(CNc1ncnc4c1CCN(Cc1ccccc1)C4)(C3)C2 [Compound 2] | 0 to 25%
CS(=O)(=O)N1CCc2c(ncnc2NCC23CC4CC(CC(C4)C2)C3)C1 [Compound 3] | 25 to 50%
CCCS(=O)(=O)N1CCc2c(ncnc2NCC23CC4CC(CC(C4)C2)C3)C1 [Compound 8] | 50 to 75%
COc1ccc(S(=O)(=O)N2CCc3c(ncnc3NCC34CC5CC(CC(C5)C3)C4)C2)cc1OC [Compound 12] | 25 to 50%
O=S(=O)(c1ccc(OC(F)(F)F)cc1)N1CCc2c(ncnc2NCC23CC4CC(CC(C4)C2)C3)C1 [Compound 16] | 0 to 25%
CN1CCOc2cc(S(=O)(=O)N3CCc4c(ncnc4NCC45CC6CC(CC(C6)C4)C5)C3)ccc21 [Compound 17] | 0 to 25%
Cc1nn(C)c(Cl)c1S(=O)(=O)N1CCc2c(ncnc2NCC23CC4CC(CC(C4)C2)C3)C1 [Compound 18] | 0 to 25%
O=S(=O)(c1cccc(OC(F)(F)F)c1)N1CCc2c(ncnc2NCC23CC4CC(CC(C4)C2)C3)C1 [Compound 20] | 25 to 50%
N#Cc1ccc(S(=O)(=O)N2CCc3c(ncnc3NCC34CC5CC(CC(C5)C3)C4)C2)cc1 [Compound 25] | 25 to 50%
Cc1noc(C)c1S(=O)(=O)N1CCc2c(ncnc2NCC23CC4CC(CC(C4)C2)C3)C1 [Compound 26] | 50 to 75%
O=c1ccc2cc(S(=O)(=O)N3CCc4c(ncnc4NCC45CC6CC(CC(C6)C4)C5)C3)ccc2o1 [Compound 28] | 25 to 50%
O=S(=O)(c1ccc(Oc2ccncc2)cc1)N1CCc2c(ncnc2NCC23CC4CC(CC(C4)C2)C3)C1 [Compound 31] | 25 to 50%
COc1ccc(Oc2ccc(S(=O)(=O)N3CCc4c(ncnc4NCC45CC6CC(CC(C6)C4)C5)C3)cc2)cc1 [Compound 32] | 0 to 25%
O=S(=O)(c1ccc(Oc2ccc(C(F)(F)F)cc2)cc1)N1CCc2c(ncnc2NCC23CC4CC(CC(C4)C2)C3)C1 [Compound 33] | 0 to 25%
O=S(=O)(c1cccc(Oc2ccc(Cl)c(Cl)c2)c1)N1CCc2c(ncnc2NCC23CC4CC(CC(C4)C2)C3)C1 [Compound 34] | 0 to 25%
COc1ccc(-c2ccc(S(=O)(=O)N3CCc4c(ncnc4NCC45CC6CC(CC(C6)C4)C5)C3)cc2)cc1 [Compound 35] | 0 to 25%
O=S(=O)(c1cc(C(F)(F)F)ccc1Cl)N1CCc2c(ncnc2NCC23CC4CC(CC(C4)C2)C3)C1 [Compound 37] | 25 to 50%
O=S(=O)(Cc1cc(C(F)(F)F)cc(C(F)(F)F)c1)N1CCc2c(ncnc2NCC23CC4CC(CC(C4)C2)C3)C1 [Compound 38] | 0 to 25%
O=S(=O)(Cc1ccc(C(F)(F)F)cc1)N1CCc2c(ncnc2NCC23CC4CC(CC(C4)C2)C3)C1 [Compound 39] | 0 to 25%
O=S(=O)(Cc1ccc(F)cc1)N1CCc2c(ncnc2NCC23CC4CC(CC(C4)C2)C3)C1 [Compound 40] | 0 to 25%
O=S(=O)(Cc1ccc(Cl)c(Cl)c1)N1CCc2c(ncnc2NCC23CC4CC(CC(C4)C2)C3)C1 [Compound 41] | 0 to 25%
O=S(=O)(Cc1cc(Cl)cc(Cl)c1)N1CCc2c(ncnc2NCC23CC4CC(CC(C4)C2)C3)C1 [Compound 42] | 25 to 50%
O=S(=O)(Cc1cccc(C(F)(F)F)c1)N1CCc2c(ncnc2NCC23CC4CC(CC(C4)C2)C3)C1 [Compound 43] | 25 to 50%
O=S(=O)(Cc1ccc(Cl)cc1)N1CCc2c(ncnc2NCC23CC4CC(CC(C4)C2)C3)C1 [Compound 45] | 25 to 50%
O=S(=O)(c1ccc(OC(F)F)cc1)N1CCc2c(ncnc2NCC23CC4CC(CC(C4)C2)C3)C1 [Compound 46] | 25 to 50%
O=S(=O)(c1ccc(F)c(Cl)c1)N1CCc2c(ncnc2NCC23CC4CC(CC(C4)C2)C3)C1 [Compound 49] | 50 to 75%
O=S(=O)(c1ccc2c(c1)OCCO2)N1CCc2c(ncnc2NCC23CC4CC(CC(C4)C2)C3)C1 [Compound 57] | 50 to 75%
O=S(=O)(c1ccc(C(F)(F)F)cc1)N1CCc2c(ncnc2NCC23CC4CC(CC(C4)C2)C3)C1 [Compound 58] | 0 to 25%

Other lines, results leading:

inhibition at 0.3 µM | SMILES
50 to 75% | Cc1ccc(S(=O)(=O)N2CCc3c(ncnc3NCC34CC5CC(CC(C5)C3)C4)C2)cc1 [Compound 5]
0 to 25% | O=S(=O)(c1ccc2ccccc2c1)N1CCc2c(ncnc2NCC23CC4CC(CC(C4)C2)C3)C1 [Compound 6]
> 75% | O=S(=O)(c1cccc2cccnc12)N1CCc2c(ncnc2NCC23CC4CC(CC(C4)C2)C3)C1 [Compound 7]
25 to 50% | COc1ccc(S(=O)(=O)N2CCc3c(ncnc3NCC34CC5CC(CC(C5)C3)C4)C2)cc1 [Compound 10]
0 to 25% | O=S(=O)(c1ccc(Cl)cc1)N1CCc2c(ncnc2NCC23CC4CC(CC(C4)C2)C3)C1 [Compound 11]
25 to 50% | O=S(=O)(c1ccc(F)cc1)N1CCc2c(ncnc2NCC23CC4CC(CC(C4)C2)C3)C1 [Compound 13]
> 75% | O=S(=O)(Cc1ccccc1)N1CCc2c(ncnc2NCC23CC4CC(CC(C4)C2)C3)C1 [Compound 14]
0 to 25% | O=S(=O)(c1cccc(C(F)(F)F)c1)N1CCc2c(ncnc2NCC23CC4CC(CC(C4)C2)C3)C1 [Compound 15]
50 to 75% | Cc1c(S(=O)(=O)N2CCc3c(ncnc3NCC34CC5CC(CC(C5)C3)C4)C2)cnn1-c1ccccc1 [Compound 19]
50 to 75% | COc1cccc(S(=O)(=O)N2CCc3c(ncnc3NCC34CC5CC(CC(C5)C3)C4)C2)c1 [Compound 21]
0 to 25% | Cc1nc(S(=O)(=O)N2CCc3c(ncnc3NCC34CC5CC(CC(C5)C3)C4)C2)cn1C [Compound 22]
0 to 25% | N#Cc1ccc(S(=O)(=O)N2CCc3c(ncnc3NCC34CC5CC(CC(C5)C3)C4)C2)c(Cl)c1 [Compound 23]
> 75% | O=S(=O)(c1ccc(Oc2ccccn2)cc1)N1CCc2c(ncnc2NCC23CC4CC(CC(C4)C2)C3)C1 [Compound 29]
> 75% | O=S(=O)(c1ccccc1Cl)N1CCc2c(ncnc2NCC23CC4CC(CC(C4)C2)C3)C1 [Compound 48]
0 to 25% | O=S(=O)(c1ccccc1C(F)(F)F)N1CCc2c(ncnc2NCC23CC4CC(CC(C4)C2)C3)C1 [Compound 51]
0 to 25% | O=S(=O)(c1ccc(-n2cccn2)cc1)N1CCc2c(ncnc2NCC23CC4CC(CC(C4)C2)C3)C1 [Compound 52]
50 to 75% | COc1ccc(S(=O)(=O)N2CCc3c(ncnc3NCC34CC5CC(CC(C5)C3)C4)C2)c(OC)c1 [Compound 53]
0 to 25% | Cc1nn(C)c(C)c1S(=O)(=O)N1CCc2c(ncnc2NCC23CC4CC(CC(C4)C2)C3)C1 [Compound 54]
0 to 25% | O=S(=O)(c1ccccc1OC(F)(F)F)N1CCc2c(ncnc2NCC23CC4CC(CC(C4)C2)C3)C1 [Compound 55]
25 to 50% | Cc1ccccc1S(=O)(=O)N1CCc2c(ncnc2NCC23CC4CC(CC(C4)C2)C3)C1 [Compound 56]
25 to 50% | O=S(=O)(c1ccc(Cl)cc1F)N1CCc2c(ncnc2NCC23CC4CC(CC(C4)C2)C3)C1 [Compound 59]
